According to ChEMBL document CHEMBL1275266, “Synthesis, cytotoxic activities and DNA binding properties of β-carboline derivatives” (Eur J Med Chem, 2010):
The source made the active and inactive calls. The calls are words filed in the database; no cut-off is given here.

Assays:
769-P = assay: Cytotoxicity against human 769-P cells by MTT assay; type: functional, cell-based
KB = assay: Cytotoxicity against human KB cells by MTT assay; type: functional, cell-based
BGC-823 = assay: Cytotoxicity against human BGC823 cells by MTT assay; type: functional, cell-based
786-0 = assay: Cytotoxicity against human 786-0 cells by MTT assay; type: functional, cell-based
HepG2 = assay: Cytotoxicity against human HepG2 cells by MTT assay; type: functional, cell-based
A-375 = assay: Cytotoxicity against human A375 cells by MTT assay; type: functional, cell-based
HT-29 = assay: Cytotoxicity against human HT-29 cells by MTT assay; type: functional, cell-based
OS-RC-2 = assay: Cytotoxicity against human OS-RC2 cells by MTT assay; type: functional, cell-based
CWR22R = assay: Cytotoxicity against human 22Rv1 cells by MTT assay; type: functional, cell-based
MCF7 = assay: Cytotoxicity against human MCF7 cells by MTT assay; type: functional, cell-based
Calf thymus DNA [1] = assay: Binding affinity to calf thymus DNA at 20 uM by UV spectroscopy; type: nucleic-acid assay; details: Bos taurus
Calf thymus DNA [2] = assay: Binding affinity to calf thymus DNA at 10 uM by fluorescence spectroscopy; type: nucleic-acid assay; details: Bos taurus
Calf thymus DNA [3] = assay: Binding affinity to calf thymus DNA assessed as change in melting temperature at 20 uM by thermal denaturation assay; type: nucleic-acid assay; details: Bos taurus

Activity (Calf thymus DNA [1]) | Activity (Calf thymus DNA [2]) | ΔTm (Calf thymus DNA [3]) [°C] | Compound | IC50 (769-P) [µM] | IC50 (KB) [µM] | IC50 (BGC-823) [µM] | IC50 (786-0) [µM] | IC50 (HepG2) [µM] | IC50 (A-375) [µM] | IC50 (HT-29) [µM] | IC50 (OS-RC-2) [µM] | IC50 (CWR22R) [µM] | IC50 (MCF7) [µM]
 |  |  | CCCCn1c2ccccc2c2cc(CNCCN(CC)CC)nc(-c3cc(OC)c(OC)c(OC)c3)c21 | 14.5 | 44.9 | 13.9 | 13.9 | 18.6 | 14.5 | > 50 | 45.4 | 8.9 | > 50
 |  |  | COc1cc(-c2nc(CNCCCN(C)C)cc3c2[nH]c2ccccc23)cc(OC)c1OC | > 50 | > 50 | > 50 | > 50 | 42.7 | > 50 | > 50 | > 50 | > 50 | > 50
Active | Active | 14.6 | CCN(CC)CCCNCc1cc2c3ccccc3n(CCCc3ccccc3)c2c(-c2cc(OC)c(OC)c(OC)c2)n1 | 2.7 | 6.5 | 5.9 | 4.7 | 1.7 | 2.6 | 5.9 | 8.3 | 7 | 4.9
 |  |  | CCN(CC)CCNCc1cc2c3ccccc3n(C)c2c(-c2cc(OC)c(OC)c(OC)c2)n1 | > 50 | > 50 | > 50 | 33.7 | 14.8 | > 50 | > 50 | > 50 | > 50 | > 50
 |  | 32 | COc1cccc2c1C(=O)c1c(O)c3c(c(O)c1C2=O)C[C@@](O)(C(=O)CO)C[C@@H]3O[C@H]1C[C@H](N)[C@H](O)[C@H](C)O1 |  |  |  |  |  |  |  |  |  | 
 |  |  | COc1cc(-c2nc(CNCCCN(C)C)cc3c4ccccc4n(CCCc4ccccc4)c23)cc(OC)c1OC | 10.4 | 4.4 | 8.5 | 6 | 3.9 | 3.7 | 7.9 | 9.4 | 10 | 6.7
 |  |  | CCN(CC)CCCCNCc1cc2c3ccccc3n(C)c2c(-c2cc(OC)c(OC)c(OC)c2)n1 | 19.1 | 42.8 | 46.3 | 20.7 | 7.1 | > 50 | > 50 | > 50 | > 50 | 36.5
 |  |  | COc1cc(-c2nc(CNCCCN(C)C)cc3c4ccccc4n(C)c23)cc(OC)c1OC | > 50 | > 50 | > 50 | 30.2 | 15.4 | > 50 | > 50 | > 50 | > 50 | 17.1
 |  |  | CCN(CC)CCCCNCc1cc2c3ccccc3n(CCCc3ccccc3)c2c(-c2cc(OC)c(OC)c(OC)c2)n1 | 3.9 | 6.9 | 6.1 | 5.5 | 2.1 | 3.7 | 7.5 | 8.7 | 6.3 | 5.2
 |  |  | CCCCn1c2ccccc2c2cc(CNCCCN(C)C)nc(-c3cc(OC)c(OC)c(OC)c3)c21 | 7.3 | 33.5 | 6.8 | 6 | 8.2 | 11 | 11.3 | 25.6 | 10.8 | 9.3
 |  | 24.8 | CCN(CC)CCCNCc1cc2c([nH]c3ccccc32)c(-c2cc(OC)c(OC)c(OC)c2)n1 | > 50 | > 50 | > 50 | > 50 | 39.6 | > 50 | > 50 | 46.8 | > 50 | > 50
 |  |  | CCN(CC)CCNCc1cc2c3ccccc3n(CCCc3ccccc3)c2c(-c2cc(OC)c(OC)c(OC)c2)n1 | 3 | 2.5 | 2.7 | 3.4 | 3.8 | 12 | 10.9 | 3 | 18.9 | 8.1
 |  |  | CCCCn1c2ccccc2c2cc(CNCCCCN(CC)CC)nc(-c3cc(OC)c(OC)c(OC)c3)c21 | 11.6 | 7.6 | 19.2 | 11 | 2.5 | 11 | 19.8 | 28.7 | 8.5 | 5.3
Active | Active | 14.8 | CCCCn1c2ccccc2c2cc(CNCCCN(CC)CC)nc(-c3cc(OC)c(OC)c(OC)c3)c21 | 7.5 | 37.3 | 6.1 | 7.7 | 8.5 | 11.3 | 14 | 25.7 | 4.2 | 6.8
Active | Active | 17.3 | CCN(CC)CCCNCc1cc2c3ccccc3n(C)c2c(-c2cc(OC)c(OC)c(OC)c2)n1 | 34.6 | 29 | 48.5 | 12.1 | 8.2 | 48.4 | 43.1 | > 50 | > 50 | 28.3
 |  |  | CC(=O)O[C@H]1C(=O)[C@@]2(C)[C@H]([C@H](OC(=O)c3ccccc3)[C@]3(O)C[C@H](OC(=O)[C@H](O)[C@@H](NC(=O)c4ccccc4)c4ccccc4)C(C)=C1C3(C)C)[C@]1(OC(C)=O)CO[C@@H]1C[C@@H]2O [PACLITAXEL] |  | 0.08 | 1.5 | < 0.08 | < 0.08 |  |  | < 0.08 |  | 
